Test results taken from patent US20160199351A1, “COMPOSITIONS AND METHODS FOR INHIBITING FUNGAL INFECTIONS” (priority 2015, published 2016).
Like-named read-outs stand apart in the source and are kept apart here.

Columns and labels:
[1] = tested on: Coccidioides immitis/posadasii; type: cell-based
Coccidioides sp. = assay: microbe, parasite or virus in culture; type: cell-based
Paeceilomyces variotii = assay: MIC, CLSI M38-A2 broth dilution (Table 1); type: cell-based; conditions: isolate QC
Apophysomyces [2] = assay: MIC, CLSI M38-A2 broth dilution (Table 1); type: cell-based
Pneumocystis carinii = assay: In vitro ATP content of Pneumocystis (luciferin-luciferase assay); conditions: for IC50: Pneumocystis carinii, read-out: IC50 (reduction in ATP)
Pneumocystis murina = assay: as above; conditions: for IC50: Pneumocystis murina, read-out: IC50 (reduction in ATP)
Rhizopus oryzae = assay: MIC (Table 5); conditions: Rhizopus arrhizus
Scedosporium apiospermum = assay: MIC, CLSI M38-A2 broth dilution (Table 1); type: cell-based
Cryptococcus neoformans = assay: MIC against Cryptococcus neoformans (Table 4); conditions: for MIC50 / MIC: Cryptococcus neoformans; for MIC: read-out: MIC 100%
Scedosporium sp. = assay: MIC (Table 5)
Aspergillus fumigatus = assay: Recovery of Aspergillus fumigatus mycelia growth after removal of antifungal drugs (MTT); type: cell-based; conditions: treated 12 hours, drug removed, 24 hours more
P. variotii = assay: MIC (Table 5); conditions: Paecilomyces variotii; for MIC: read-out: MIC 100%
Fusarium oxysporum = assay: MIC, CLSI M38-A2 broth dilution (Table 1); type: cell-based
Apophysomyces [3] = assay: MIC (Table 5)
Fusarium solani = assay: MIC, CLSI M38-A2 broth dilution (Table 1); type: cell-based; conditions: isolate FS1, 48 hours

NCC(=O)Nc1ccc(-n2nc(C(F)(F)F)cc2-c2ccc3c(ccc4ccccc43)c2)cc1 [AR-12, 2-amino-N-(4-(5-(phenanthren-2-yl)-3-(trifluoromethyl)-1H-pyrazol-1-yl)phenyl)acetamide]
no viable Aspergillus fumigatus mycelia: recovery of mycelia growth after removal of drug (Aspergillus fumigatus)
99.04%: Pm % Reduction in ATP/Vehicle Control (Pneumocystis carinii; Table 2, 100 μg/ml, 72 hours)
2 gg/m1: MIC 50% ([1]; isolate Cocci3, 48 hours) | MIC 100% ([1]; isolate Cocci3, 48 hours) | MIC 50% (Apophysomyces [2]; isolate A1, 24 hours) | MIC 50% (Apophysomyces [2]; isolate A2, 24 hours) | MIC 50% (Scedosporium apiospermum; isolate SA1, 72 hours) | MIC 100% (Scedosporium apiospermum; isolate SA1, 72 hours) | MIC 100% (Scedosporium apiospermum; isolate SA2, 72 hours)
41.3 µg/mL: IC50 (Pneumocystis carinii; 24 h)
3.51%: Pm % Reduction in ATP/Vehicle Control (Pneumocystis murina; Table 3, 1 μg/ml, 24 hours)
15.48%: Pm % Reduction in ATP/Vehicle Control (Pneumocystis murina; Table 3, 1 μg/ml, 72 hours)
4.82 µg/mL: IC50 (Pneumocystis carinii; 72 h)
5.76%: Pm % Reduction in ATP/Vehicle Control (Pneumocystis murina; Table 3, 1 μg/ml, 48 hours)
94.23%: Pm % Reduction in ATP/Vehicle Control (Pneumocystis murina; Table 3, 10 μg/ml, 72 hours)
1 gg/m1: MIC 50% ([1]; isolate Cocci1, 48 hours) | MIC 100% ([1]; isolate Cocci1, 48 hours) | MIC 50% ([1]; isolate Cocci2, 48 hours) | MIC 100% ([1]; isolate Cocci2, 48 hours) | MIC 50% (Scedosporium apiospermum; isolate SA2, 72 hours)
8 µg/mL: MIC (Coccidioides sp.; Coccidioides, read-out: MIC 100%, isolate COCCI-2, 72/192 hrs) | MIC50 (Rhizopus oryzae; isolate R-2, 48/72 hrs) | MIC (Rhizopus oryzae; read-out: MIC 100%, isolate R-2, 48/72 hrs)
83.6%: Pm % Reduction in ATP/Vehicle Control (Pneumocystis murina; Table 3, 100 μg/ml, 24 hours)
59.81%: Pm % Reduction in ATP/Vehicle Control (Pneumocystis carinii; Table 2, 10 μg/ml, 72 hours)
>16 gg/m1: MIC 100% (Apophysomyces [2]; isolate A1, 24 hours) | MIC 100% (Apophysomyces [2]; isolate A2, 24 hours)
16.68%: Pm % Reduction in ATP/Vehicle Control (Pneumocystis carinii; Table 2, 10 μg/ml, 48 hours)
98.09%: Pm % Reduction in ATP/Vehicle Control (Pneumocystis murina; Table 3, 100 μg/ml, 72 hours)
85.38%: Pm % Reduction in ATP/Vehicle Control (Pneumocystis murina; Table 3, 10 μg/ml, 48 hours)
0.49%: Pm % Reduction in ATP/Vehicle Control (Pneumocystis carinii; Table 2, 1 μg/ml, 72 hours)
4 gg/m1: MIC 50% (Paeceilomyces variotii) | MIC 100% (Paeceilomyces variotii) | MIC 50% (Fusarium oxysporum; isolate FO1, 48 hours) | MIC 100% (Fusarium oxysporum; isolate FO1, 48 hours) | MIC 50% (Fusarium oxysporum; isolate FO2, 48 hours) | MIC 100% (Fusarium oxysporum; isolate FO2, 48 hours) | MIC 50% (Fusarium solani) | MIC 100% (Fusarium solani)
2 µg/mL: MIC50 (Coccidioides sp.; Coccidioides) | MIC 50% (Coccidioides sp.; isolate COCCI-1, 72/192 hrs) | MIC 50% (Coccidioides sp.; isolate COCCI-3, 72/192 hrs) | MIC50 (Rhizopus oryzae; 24 h, isolate R-5, 24 hrs) | MIC50 (Cryptococcus neoformans; 48 h, isolate CN-1, 48 hrs) | MIC50 (Scedosporium sp.; 24 h, isolate S-2, 24 hrs) | MIC (Scedosporium sp.; 24 h, read-out: MIC 100%, isolate S-2, 24 hrs) | MIC50 (Scedosporium sp.; isolate S-1, 48/72 hrs) | MIC50 (P. variotii; 24 h) | MIC50 (Apophysomyces [3]; 24 h) | MIC 50% (Apophysomyces [3]; isolate AE-2, 24 hrs)
1.78 µg/mL: IC50 (Pneumocystis murina; 72 h)
9.69 µg/mL: IC50 (Pneumocystis murina; 24 h)
1.76%: Pm % Reduction in ATP/Vehicle Control (Pneumocystis carinii; Table 2, 1 μg/ml, 48 hours)
97.2%: Pm % Reduction in ATP/Vehicle Control (Pneumocystis carinii; Table 2, 100 μg/ml, 48 hours)
4 µg/mL: MIC (Coccidioides sp.; Coccidioides, read-out: MIC 100%, isolate COCCI-1, 72/192 hrs) | MIC (Coccidioides sp.; Coccidioides, read-out: MIC 100%, isolate COCCI-3, 72/192 hrs) | MIC50 (Rhizopus oryzae; 24 h, isolate R-1, 24 hrs) | MIC50 (Rhizopus oryzae; 24 h, isolate R-2, 24 hrs) | MIC50 (Rhizopus oryzae; 24 h, isolate R-3, 24 hrs) | MIC50 (Rhizopus oryzae; 24 h, isolate R-4, 24 hrs) | MIC50 (Rhizopus oryzae; 24 h, isolate R-6, 24 hrs) | MIC (Rhizopus oryzae; 24 h, read-out: MIC 100%, isolate R-1, 24 hrs) | MIC (Rhizopus oryzae; 24 h, read-out: MIC 100%, isolate R-2, 24 hrs) | MIC (Rhizopus oryzae; 24 h, read-out: MIC 100%, isolate R-3, 24 hrs) | MIC (Rhizopus oryzae; 24 h, read-out: MIC 100%, isolate R-4, 24 hrs) | MIC (Rhizopus oryzae; 24 h, read-out: MIC 100%, isolate R-5, 24 hrs) | MIC (Rhizopus oryzae; 24 h, read-out: MIC 100%, isolate R-6, 24 hrs) | MIC50 (Rhizopus oryzae; isolate R-1, 48/72 hrs) | MIC50 (Rhizopus oryzae; isolate R-3, 48/72 hrs) | MIC50 (Rhizopus oryzae; isolate R-4, 48/72 hrs) | MIC50 (Rhizopus oryzae; isolate R-5, 48/72 hrs) | MIC50 (Rhizopus oryzae; isolate R-6, 48/72 hrs) | MIC (Rhizopus oryzae; read-out: MIC 100%, isolate R-1, 48/72 hrs) | MIC (Rhizopus oryzae; read-out: MIC 100%, isolate R-3, 48/72 hrs) | MIC (Rhizopus oryzae; read-out: MIC 100%, isolate R-4, 48/72 hrs) | MIC (Rhizopus oryzae; read-out: MIC 100%, isolate R-5, 48/72 hrs) | MIC (Rhizopus oryzae; read-out: MIC 100%, isolate R-6, 48/72 hrs) | MIC50 (Cryptococcus neoformans; 48 h, isolate CN-2, 48 hrs) | MIC50 (Cryptococcus neoformans; 48 h, isolate CN-3, 48 hrs) | MIC (Cryptococcus neoformans; 48 h) | MIC50 (Cryptococcus neoformans; 72 h, isolate CN-1, 72 hrs) | MIC50 (Cryptococcus neoformans; 72 h, isolate CN-2, 72 hrs) | MIC50 (Cryptococcus neoformans; 72 h, isolate CN-3, 72 hrs) | MIC (Cryptococcus neoformans; 72 h) | MIC 100% (Cryptococcus neoformans; isolate CN-2, 48 hrs) | MIC 100% (Cryptococcus neoformans; isolate CN-2, 72 hrs) | MIC 100% (Cryptococcus neoformans; isolate CN-3, 48 hrs) | MIC 100% (Cryptococcus neoformans; isolate CN-3, 72 hrs) | MIC50 (Scedosporium sp.; isolate S-2, 48/72 hrs) | MIC (Scedosporium sp.; read-out: MIC 100%, isolate S-1, 48/72 hrs) | MIC (Scedosporium sp.; read-out: MIC 100%, isolate S-2, 48/72 hrs) | MIC50 (P. variotii) | MIC (P. variotii; 24 h) | MIC (P. variotii) | MIC50 (Apophysomyces [3]) | MIC (Apophysomyces [3]; 24 h, read-out: MIC 100%, isolate AE-1, 24 hrs) | MIC (Apophysomyces [3]; 24 h, read-out: MIC 100%, isolate AE-2, 24 hrs) | MIC 50% (Apophysomyces [3]; isolate AE-2, 48/72 hrs) | MIC (Apophysomyces [3]; read-out: MIC 100%, isolate AE-1, 48/72 hrs) | MIC (Apophysomyces [3]; read-out: MIC 100%, isolate AE-2, 48/72 hrs)
97.31%: Pm % Reduction in ATP/Vehicle Control (Pneumocystis carinii; Table 2, 100 μg/ml, 24 hours)
54.02%: Pm % Reduction in ATP/Vehicle Control (Pneumocystis murina; Table 3, 10 μg/ml, 24 hours)
18.3 µg/mL: IC50 (Pneumocystis carinii; 48 h)
2.77 µg/mL: IC50 (Pneumocystis murina; 48 h)
0%: Pm % Reduction in ATP/Vehicle Control (Pneumocystis carinii; Table 2, 1 μg/ml, 24 hours) | Pm % Reduction in ATP/Vehicle Control (Pneumocystis carinii; Table 2, 10 μg/ml, 24 hours)
97.76%: Pm % Reduction in ATP/Vehicle Control (Pneumocystis murina; Table 3, 100 μg/ml, 48 hours)
